Like-named read-outs stand apart in the source and are kept apart here.
What was measured:
bacterial GABA-T = target: T1, bacterial GABA-T (Pseudomonas fluorescens, UniProt Q4KKA1); assay: GABA-T inhibition assay with GABase, NADPH absorbance at 340 nm (Mixture A); format: biochemical; settings: for IC50: 10 min preincubation, 25 °C, pH 8.6, 200 µM GABA
T1 sequence (Q4KKA1 1-425): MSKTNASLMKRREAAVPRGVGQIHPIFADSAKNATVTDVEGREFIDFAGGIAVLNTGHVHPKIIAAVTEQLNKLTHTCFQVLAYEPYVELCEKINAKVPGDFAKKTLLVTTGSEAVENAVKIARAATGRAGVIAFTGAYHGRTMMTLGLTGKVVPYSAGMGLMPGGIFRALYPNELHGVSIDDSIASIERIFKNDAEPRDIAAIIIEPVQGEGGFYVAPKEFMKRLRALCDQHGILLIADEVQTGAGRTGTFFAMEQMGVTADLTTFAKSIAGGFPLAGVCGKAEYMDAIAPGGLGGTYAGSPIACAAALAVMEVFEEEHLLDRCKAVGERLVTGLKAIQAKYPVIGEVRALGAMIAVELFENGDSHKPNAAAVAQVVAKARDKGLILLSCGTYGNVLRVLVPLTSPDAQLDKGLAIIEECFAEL
Source text: GABase (Merck, G7509) is a convenient and inexpensive source of SSADH, as it is a commercially available mixture composed of bacterial GABA-T and SSADH obtained from Pseudomonas fluorescens. However, GABase was not able to be used directly in our human GABA-T assay due to the presence of bacterial GABA-T. So we used the bacterial SSADH isolation method as previously described, which allowed large amounts of bacterial SSADH to be isolated quickly and conveniently from GABase by irreversibly inhibiting the bacterial GABA-T activity. Five milligrams of gabaculine (Santa Cruz Biotechnology, sc-200473), a naturally occurring GABA-T irreversible inhibitor, was added to 25 ml of 1 U/mL GABase solution (reconstituted with 50 mM K4P2O7 buffer at pH 8.6), followed by maintaining the reaction at 4 °C for 30 min. The residual gabaculine, which also can inactivate recombinant human GABA-T, was eliminated by dialysis at 4 °C with 2 L of K4P2O7 buffer, changed 3 times per 9 h followed by the final dialysis overnight. The isolated bacterial SSADH was stored at −80 °C for long-term storage.
(§1) All test samples were prepared at a final volume of 200 µl/well in a 96-well plate with a clear flat bottom, and the enzyme reaction was carried out at 25 °C. The final solution of the assay in Figure 3(B) consisted of SSA (0, 12.5, 25, 50, 100, and 200 µM), 2.5 mM β-NADP^+, 1 mM 2-mercaptoethanol (2-ME), and SSADH (from 20 µL of 1 U/mL gabaculine-treated GABase) in 50 mM K4P2O7 buffer (pH 8.6). The final solution of the assay in Figure 3(C) consisted of GABA (0, 100 and 200 µM), 2.5 mM β-NADP^+, 5 mM α-KG, 1 mM 2-ME and each enzymatic mixture (Mixture A: 10 µL of 1 U/mL GABase; Mixture B: 10 µL of 1 U/mL gabaculine-treated GABase; Mixture C: 2 µg of human GABA-T mixed with 10 µL of 1 U/mL gabaculine-treated GABase) in 50 mM K4P2O7 buffer at pH 8.6. The final solution of the assay in Figure 3(D) consisted of 200 µM GABA, 2.5 mM β-NADP^+, 5 mM α-KG, 1 mM 2-ME, SSADH (from Mixture B) and human GABA-T at various concentrations (0.156, 0.313, 0.625, 1.25, 2.5, 5, and 10 µg/mL) in 50 mM K4P2O7 buffer at pH 8.6. […] The final solution of the assay in Figure 4(A) consisted of gabaculine (0, 15.63, 31.25, 62.5, 125, 250, 500, and 1000 nM), 200 µM GABA, 2.5 mM β-NADP^+, 5 mM α-KG, and each enzymatic mixture (A or C) in 50 mM K4P2O7 buffer (pH 8.6) containing or not containing 1 mM 2-ME. […] The change in 340 nm absorbance at 25 °C caused by the conversion of NADP^+ to NADPH, which is proportional to GABA-T activity, was recorded every 4 min kinetically with SpectraMax iD5 Multi-Mode Microplate Reader (Molecular Devices). GABA-T activity was calculated during the linear phase of the reaction, corrected for background from blanks. All experiments were performed in triplicate and data were presented as mean ± SEM (Standard Error of Mean) or each replicate. Data plotting and regression analysis were performed with GraphPad Prism software (Version 9.1.2, GraphPad Software).

recombinant human GABA-T = target: T2, recombinant human GABA-T (Homo sapiens, UniProt P80404); assay: GABA-T inhibition assay, coupled with SSADH, NADPH absorbance at 340 nm (Mixture C); format: biochemical; settings: for IC50: IC50 for human GABA-T, 10 min preincubation, 25 °C, pH 8.6, 200 µM GABA
T2 construct: made in house; host or cells: Expi293F human cells, transient transfection
T2 sequence (P80404 29-500): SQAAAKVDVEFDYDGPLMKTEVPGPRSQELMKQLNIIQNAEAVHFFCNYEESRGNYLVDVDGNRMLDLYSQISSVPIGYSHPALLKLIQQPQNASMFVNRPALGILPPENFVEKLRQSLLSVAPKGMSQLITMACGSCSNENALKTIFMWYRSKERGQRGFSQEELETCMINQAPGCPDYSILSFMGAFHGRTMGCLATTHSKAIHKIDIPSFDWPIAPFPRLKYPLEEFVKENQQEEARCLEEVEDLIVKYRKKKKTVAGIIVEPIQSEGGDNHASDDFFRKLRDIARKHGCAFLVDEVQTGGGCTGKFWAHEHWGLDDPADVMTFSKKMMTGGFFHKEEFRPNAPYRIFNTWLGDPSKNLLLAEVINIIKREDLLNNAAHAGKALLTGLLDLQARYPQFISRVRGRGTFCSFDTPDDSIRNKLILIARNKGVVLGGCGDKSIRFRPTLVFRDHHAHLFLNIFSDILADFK
Experimental: as §1

| IC50 (bacterial GABA-T; absence of 2-ME (multimeric form), read-out: IC50 for bacterial GABA-T) | IC50 (bacterial GABA-T; presence of 1 mM 2-ME (monomeric form), read-out: IC50 for bacterial GABA-T) | difference in sensitivity, human vs bacterial GABA-T (recombinant human GABA-T; with 2-ME, monomeric form) | difference in sensitivity, human vs bacterial GABA-T (recombinant human GABA-T; without 2-ME, human homodimeric vs bacterial multimeric form) | Compound | GABA degradation-dependent NADPH synthesis in GABase after treatment (bacterial GABA-T; 5 mg gabaculine in 25 ml of 1 U/mL GABase, 4 °C, 30 min, then dialysis, GABA 0, 100, 200 µM) | IC50 (bacterial GABA-T; IC50 for bacterial GABA-T, absence of 2-ME (multimeric form)) | IC50 (bacterial GABA-T; IC50 for bacterial GABA-T, presence of 1 mM 2-ME (monomeric form)) | IC50 (recombinant human GABA-T; absence of 2-ME (homodimeric/multimeric form)) | IC50 (recombinant human GABA-T; presence of 1 mM 2-ME (monomeric form)) |
| --- | --- | --- | --- | --- | --- | --- | --- | --- | --- |
| 631 µM | 14200 µM | 202 fold | 70 fold | C=CC(N)CCC(=O)O (stereo not drawn) [vigabatrin] |  |  |  |  |  |
|  |  |  |  | NC1C=CC=C(C(=O)O)C1 (stereo not drawn) [gabaculine] | completely impaired | 0.19 µM | 0.13 µM | 0.22 µM | 0.12 µM |

Source: article PMC8439235, “High-yield synthesis and purification of recombinant human GABA transaminase for high-throughput screening assays” (Journal of Enzyme Inhibition and Medicinal Chemistry, 2021)
